Source: patent publication US8912146B2, “Derivatives of APF and methods of use” (University of Maryland, Baltimore, priority 2008, dated 2014)
Entries after “also recorded” stand apart in the source; their conditions may differ. *1 amine or outer side, *2 acyl side, *3 side chain or, on linkers, in order; H or OH if unused. Where a SMILES comes first, the peptide text is derived from it. [ ]: non-standard residue; d: D form. The star is where a group is joined. ξ: configuration not given here. X1 = CC(=O)NC1C(O[C@@H]2OC(CO)[C@H](O)C(O)C2O)[C@@H](O)C(CO)O[C@@H]1*; X4 = CC1(C)OC[C@@H](C(=O)[*:2])N1[*:1]; Thr(3ξ) = CC(O)[C@H](N)C(=O)O; ξV = CC(C)C(N)C(=O)O; ξA = CC(N)C(=O)O

Columns and labels:
[1] = tested on: primary normal human bladder epithelial cells; conditions: Keay et al., 2004; cited from earlier work
[2] = tested on: Hs839.T melanoma cells; assay: 3H-thymidine incorporation in melanoma cells; assay type: cell-based; conditions: for inhibition of melanoma cell proliferation: compared to cell medium alone (p<0.00001)
Method: Ovarian carcinoma (Caov-3), prostate carcinoma (LNCaP), melanoma (Hs839.T), pancreatic carcinoma (PANC-1), bladder carcinoma (T24, RT4 and TCCSuP), kidney carcinoma (ACHN), cervical carcinoma (HeLa), lung carcinoma (A549), colon carcinoma (WiDr), and breast carcinoma (Bt-474) cells were all purchased from the American Type Culture Collection (ATCC). Caov-3, HS839.T, PANC-1, and BT-474 cells were grown in DMEM medium (with 4 mM L-glutamine—Gibco BRL) containing 10% heat-inactivated fetal calf serum, 4.5 g/L glucose, 1.5 g/L sodium bicarbonate and 1% antibiotic/antimycotic solution (all supplements from Sigma except sodium bicarbonate which is from Gibco BRL). LNCaP cells were grown in RPMI medium (with 2 mM L-glutamine—Gibco BRL) containing10% heat-incativated fetal calf serum, 10 mM HEPES buffer, 1 mM sodium pyruvate, 4.5 g/L glucose, 1.5 g/L sodium bicarbonate, and 1% antibiotic/antimycotic solution (all supplements from Sigma except sodium bicarbonate which is from Gibco BRL). T24 and RT4 cells were grown in McCoy's 5A medium (Gibco BRL) containing 10% heat-inactivated fetal calf serum, 1% L-glutamine, 2.2 g/L sodium bicarbonate, and 1% antibiotic/antimycotic solution (all supplements from Sigma except sodium bicarbonate which is from Gibco BRL). TCCSuP, HeLa, and WiDr cells were grown in MEM (Gibco BRL) containing 10% heat-inactivated fetal calf serum, 1% L-glutamine, 1 mM sodium pyruvate, and 1% antibiotic/antimycotic solution (all supplements from Sigma). ACHN cells were grown in the same medium as TCCSuP and HeLa cells with the exception that it also contained 1.5 g/L sodium bicarbonate (Gibco BRL). A549 cells were grown in F12 medium (Gibco BRL) containing 10% heat-inactivated fetal calf serum, 1% L-glutamine, and 1% antibiotic/antimycotic solution (all supplements from Sigma).
Cancer (carcinoma or melanoma) cell proliferation was measured by ^3H-thymidine incorporation into each type of cancer cell, plating 3.0×10^3 cells/well (A549 cells) or 1.5×10^3 cells/well (all other cancer cells) onto a 96 well cell culture plate (VWR 29442-054), in 150 ul/well of the respective normal growth medium for each cell type (see above). All APF congeners were resuspended as described for normal bladder epithelial cells, except using the specific serum-free medium appropriate for each cell type, and the remainder of the assay was performed as described for normal bladder cells, above.
(§1) Significance of the difference in mean values between groups was determined by an analysis of variance.
(§2) Cell proliferation was measured by ^3H-thymidine incorporation into each cell type, plating cells in […] of their respective medium (see above) onto a 96-well cell culture plate (Corning, N.Y.) at a predetermined optimal cell density for APF inhibition of cell proliferation: Caov-3, PANC-1, T24, HeLa, and HS839.T cells were plated at a density of 1.5×10^3 cells/well; A549 cells were plated at a density of 3×10^3 cells/well. On the next day, cell growth medium was removed and replaced with serum-free medium appropriate for each cell type. […] Cells were then incubated at 37° C. in a 5% CO2 atmosphere for 48 hours, after which cell contents were harvested, methanol-fixed onto glass fiber filter paper, and the amount of radioactivity incorporated determined. […]

[3] = tested on: carcinoma cell lines (WiDr, HeLa, PANC-1, CaOv3, BT474, ACHN, T24, A549); assay: 3H-thymidine incorporation in carcinoma cell lines; assay type: cell-based; conditions: 48 hrs; for inhibition of carcinoma cell line proliferation: compared to cell medium alone (p<0.00001)
Method: Ovarian carcinoma (Caov-3), prostate carcinoma (LNCaP), melanoma (Hs839.T), pancreatic carcinoma (PANC-1), bladder carcinoma (T24, RT4 and TCCSuP), kidney carcinoma (ACHN), cervical carcinoma (HeLa), lung carcinoma (A549), colon carcinoma (WiDr), and breast carcinoma (Bt-474) cells were all purchased from the American Type Culture Collection (ATCC). Caov-3, HS839.T, PANC-1, and BT-474 cells were grown in DMEM medium (with 4 mM L-glutamine—Gibco BRL) containing 10% heat-inactivated fetal calf serum, 4.5 g/L glucose, 1.5 g/L sodium bicarbonate and 1% antibiotic/antimycotic solution (all supplements from Sigma except sodium bicarbonate which is from Gibco BRL). LNCaP cells were grown in RPMI medium (with 2 mM L-glutamine—Gibco BRL) containing10% heat-incativated fetal calf serum, 10 mM HEPES buffer, 1 mM sodium pyruvate, 4.5 g/L glucose, 1.5 g/L sodium bicarbonate, and 1% antibiotic/antimycotic solution (all supplements from Sigma except sodium bicarbonate which is from Gibco BRL). […]
Cancer (carcinoma or melanoma) cell proliferation was measured by ^3H-thymidine incorporation into each type of cancer cell, plating 3.0×10^3 cells/well (A549 cells) or 1.5×10^3 cells/well (all other cancer cells) onto a 96 well cell culture plate (VWR 29442-054), in 150 ul/well of the respective normal growth medium for each cell type (see above). […]
as §1
as §2, with “cells/well.” for “cells/well. On the next day, cell growth medium was removed and replaced with serum-free medium appropriate for each cell type.”

[4] = tested on: Akt/GSK3/beta catenin signaling in T24 bladder carcinoma cells; assay: Western blot / qRT-PCR of Akt/GSK3/beta catenin signaling in T24 cells; assay type: cell-based; conditions: 50 nM
Method: Gene expression was determined by quantitative RT-PCR, and specific protein expression or phosphorylation was determined by Western blot. p53 mRNA and protein expression served as positive controls for APF activity. Beta actin expression served as a standard control for Western blot analyses (see FIGS. 38-40).

[5] = tested on: primary normal human bladder epithelial cells; assay: 3H-thymidine incorporation (antiproliferative activity) in primary normal bladder epithelial cells; assay type: cell-based; conditions: for % of activity: relative to 1 (as-APF) run on the same plate, from IC50, inactive = no significant activity at <25 μM
Method: Cell Culture. Cystoscopy was performed under general anesthesia, and 4-mm^2 pieces of transitional epithelium with submucosal bladder tissue were obtained for the growth of primary bladder epithelial cells, as previously described (Keay et al., 1996; 2004). Primary normal bladder epithelial cells were propagated in DMEM-F12 (Media-Tech, Herndon Va.) with 10% heat-inactivated fetal bovine serum (FBS), 1% antibiotic/antimycotic solution, 1% L-glutamine, 0.25 units/mL insulin (all from Sigma, St. Louis, Mo.), and 5 ng/mL hEGF (R&D Systems, Minneapolis, Minn.) at 37° C. in a 5% CO2 atmosphere and characterized by binding of AE-1/AE-3 pancytokeratin antibodies (Signet, Dedham, Mass.).
^3H-Thymidine Incorporation. Cell proliferation was measured by ^3H-thymidine incorporation into explanted normal human bladder epithelial cells, plating 1.5×10^4 cells/well onto a 96 well cell culture plate (VWR 29442-054), in 150 ul/well MEM containing 10% heat inactivated FBS, 1% antibiotic/antimycotic solution, and 1% L-glutamine (all from Sigma), resulting in a doubling time of 48-72 hours, as previously described (Keay et al., 1996; 2004). Each purified lyophilized synthetic APF congener was resuspended in acetonitrile/distilled water (1:1), and applied to the cells in serum-free MEM (containing only L-glutamine and antibiotics/antimycotics); cell controls received acetonitrile/distilled water diluted in serum-free MEM alone. Cells were then incubated at 37° C. in a 5% CO2 atmosphere for 48 hours. The cell contents harvested and methanol-fixed onto glass fiber filter paper, and the amount of radioactivity incorporated determined. Significant inhibition of ^3H-thymidine incorporation was defined as a mean decrease in counts per minute of greater than 2 standard deviations from the mean of control cells for each plate. Inhibition of cell proliferation was determined from a semi-log plot of dose-response for each APF derivative; IC50 was determined as the concentration of each derivative that caused a mean 50% inhibition of thymidine incorporation as compared to the mean of untreated cell controls.
Statistical Analysis. The thymidine incorporation (APF biological activity) assay was performed in triplicate on at least two separate runs, with 1 run simultaneously in triplicate on the same plate. The significance of the difference between mean values for each congener vs. mean values for compound 1 was determined by an analysis of variance.

[6] = nonelectroporated T24 control cells, p<0.05

| Compound | activity in biological antiproliferation assays, previously determined [1] | antiproliferative activity compared with as-APF (1), in words [5] | % of activity [5] | further results |
| --- | --- | --- | --- | --- |
| Neu5Acα2-3Galβ1-3GalNAcα-O-TVPAAVVVA | essentially equipotent |  |  |  |
| Neu5Acα2-3Galβ1-4GlcNAcα-O-SLPAAVVVA | essentially equipotent |  |  |  |
| TVPAAVVVA [nonglycosylated nonapeptide, reference compound] | completely inactive |  |  | inhibition of melanoma cell proliferation ([2]; 48 hrs, listed as negative control peptide): no effect; also recorded: none of these cell lines was inhibited; inhibition of carcinoma cell line proliferation ([3]; listed as negative control peptide): no effect; also recorded: none of these cell lines was inhibited |
| CC(=O)NC1C(O[C@@H]2OC(CO)[C@H](O)C(O)C2O)[C@@H](O)C(CO)O[C@@H]1OC(C)[C@H](N)C(=O)NC(C(=O)N1CCC[C@H]1C(=O)NC(C)C(=O)N[C@@H](C)C(=O)NC(C(=O)N[C@H](C(=O)NC(C(=O)N[C@@H](C)C(=O)O)C(C)C)C(C)C)C(C)C)C(C)C (some centres unmarked) [Derivative 1, Galβ1-3GalNAcα-O-TVPAAVVVA] | essentially equipotent |  |  | inhibition of melanoma cell proliferation ([2]; 48 hrs): significantly inhibited proliferation; IC50 in melanoma cells ([2]; 48 hrs, listed as as-APF): low to mid nanomolar range; inhibitor concentration at which significant inhibition occurred, melanoma cells vs carcinoma cells ([2]; listed as as-APF): 1-2 orders of magnitude higher; inhibitor concentration at which significant inhibition occurred, melanoma cells vs carcinoma cells ([2]; listed as asialo-APF): 2 orders of magnitude higher; inhibition of carcinoma cell line proliferation [3]: significantly inhibited proliferation; IC50 in carcinoma cell lines ([3]; listed as as-APF): low to mid nanomolar range; mRNA and protein expression of total Akt, GSK3beta, beta catenin ([4]; T24 cells, p>0.05): neither mRNA nor protein expression of total Akt, GSK3beta, or beta catenin changed significantly; Akt phosphorylation (serine 473 and threonine 308) [4, 6]: significantly decreased; GSK3beta phosphorylation (tyrosine 216) [4, 6]: significantly decreased; beta catenin phosphorylation (serine 33/37 and threonine 41) [4, 6]: significantly increased; beta catenin phosphorylation (serine 45) [4, 6]: significantly decreased |
| Galβ1-3GalNAcβ-O-TVPAAVVVA | completely inactive |  |  |  |
| CC(=O)NC1C(O[C@@H]2OC(CO)[C@H](O)C(O)C2O)[C@@H](O)C(CO)O[C@@H]1OC(C)[C@H](N)C(=O)NC(C(=O)N1CCC[C@H]1C(=O)NC(C)C(=O)NCC(=O)NC(C(=O)N[C@H](C(=O)NC(C(=O)NCC(=O)O)C(C)C)C(C)C)C(C)C)C(C)C (some centres unmarked) [Derivative 24] (H-[Thr(3ξ)](X1)[ξV]P[ξA]G[ξV]V[ξV]G-OH) |  | complete inactivation | inactive |  |
| CC(=O)NC1C(O[C@@H]2OC(CO)[C@H](O)C(O)C2O)[C@@H](O)C(CO)O[C@@H]1OC(C)[C@H](N)C(=O)NC(C(=O)N1[C@H](C(=O)NC(C)C(=O)N[C@@H](C)C(=O)NC(C(=O)N[C@H](C(=O)NC(C(=O)N[C@@H](C)C(=O)O)C(C)C)C(C)C)C(C)C)COC1(C)C)C(C)C (some centres unmarked) [Derivative 9] (H-[Thr(3ξ)](X1)[ξV][X4][ξA]A[ξV]V[ξV]A-OH) |  | completely abolished activity | inactive |  |
| CC(=O)NC1C(O[C@@H]2OC(CO)[C@H](O)C(O)C2O)[C@@H](O)C(CO)O[C@@H]1OC(C)[C@H](N)C(=O)NC(C(=O)N1CCC[C@H]1C(=O)NC(C)C(=O)N[C@@H](C)C(=O)NC(C)C(=O)N[C@@H](C)C(=O)NC(C)C(=O)N[C@@H](C)C(=O)O)C(C)C (some centres unmarked) [Derivative 25] (H-[Thr(3ξ)](X1)[ξV]P[ξA]A[ξA]A[ξA]A-OH) |  | decreased antiproliferative activity | 1% |  |
| Galβ1-4GlcNAcα-O-SLPAAVVVA | essentially equipotent |  |  |  |
| CC(=O)NC1C(O[C@@H]2OC(CO)[C@H](O)C(O)C2O)[C@@H](O)C(CO)O[C@@H]1OC(C)[C@H](N)C(=O)NC(C(=O)N1CCC[C@H]1C(=O)NC(C)C(=O)N[C@@H](C)C(=O)NC(C(=O)N[C@H](C(=O)NC(C(=O)N[C@@H](CC(C)C)C(=O)O)C(C)C)C(C)C)C(C)C)C(C)C (stereo partly drawn) [Derivative 21] (H-[Thr(3ξ)](X1)[ξV]P[ξA]A[ξV]V[ξV]L-OH) |  | loss of most or all biological activity | 0.01% |  |
| Neu5Ac α 2-3Galβ1-4-GlcNAcα-O-TVPAAVVVA | essentially equipotent |  |  |  |
| CC(=O)NC1C(O[C@@H]2OC(CO)[C@H](O)C(O)C2O)[C@@H](O)C(CO)O[C@@H]1OC(C)[C@H](N)C(=O)NC(C(=O)N1CCC[C@H]1C(=O)NC(C)C(=O)N[C@@H](C)C(=O)NCC(=O)NCC(=O)NCC(=O)N[C@@H](C)C(=O)O)C(C)C (some centres unmarked) [Derivative 26] (H-[Thr(3ξ)](X1)[ξV]P[ξA]AGGGA-OH) |  | complete inactivation of antiproliferative activity | 0.01% |  |
| CC(=O)NC1C(O[C@@H]2OC(CO)[C@H](O)C(O)C2O)[C@@H](O)C(CO)O[C@@H]1OC(C)[C@H](N)C(=O)NC(C(=O)N1CCC[C@H]1C(=O)NC(C)C(=O)N[C@@H](CO)C(=O)NC(C(=O)N[C@H](C(=O)NC(C(=O)N[C@@H](CO)C(=O)O)C(C)C)C(C)C)C(C)C)C(C)C (some centres unmarked) [Derivative 23] (H-[Thr(3ξ)](X1)[ξV]P[ξA]S[ξV]V[ξV]S-OH) |  | partial inactivation | 0.2% |  |
